Data: ChEMBL document CHEMBL1201862, “PubChem BioAssay data set” (2004)
Calls of active or inactive are those of the source.

Legend:
[1] = target: T1, Mannose-6-phosphate isomerase (Homo sapiens, UniProt P34949); experiment: inhibitors of human PMI, primary screen, biochemical, fluorescence intensity, coupled assay (AID 1209)
T1 sequence (P34949 whole entry): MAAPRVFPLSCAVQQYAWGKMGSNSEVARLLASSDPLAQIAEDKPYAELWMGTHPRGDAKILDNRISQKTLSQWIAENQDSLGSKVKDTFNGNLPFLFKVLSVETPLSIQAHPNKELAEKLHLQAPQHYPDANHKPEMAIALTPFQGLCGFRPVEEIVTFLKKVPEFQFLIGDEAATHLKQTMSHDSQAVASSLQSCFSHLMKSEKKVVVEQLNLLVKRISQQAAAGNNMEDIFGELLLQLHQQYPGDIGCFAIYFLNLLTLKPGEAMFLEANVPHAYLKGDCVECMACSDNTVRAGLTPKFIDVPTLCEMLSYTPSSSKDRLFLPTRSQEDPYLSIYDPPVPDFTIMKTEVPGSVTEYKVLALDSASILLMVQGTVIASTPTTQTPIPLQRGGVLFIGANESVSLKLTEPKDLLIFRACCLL

[2] = target: T1, Mannose-6-phosphate isomerase; experiment: PMI enzyme inhibitors, confirmation, biochemical, fluorescence intensity (AID 1535)
[3] = target: DNA dC->dU-editing enzyme APOBEC-3A (Homo sapiens, UniProt P31941); experiment: APOBEC3A DNA deaminase inhibitors, dose response, biochemical (AID 504722); format: functional
Sequence of DNA dC->dU-editing enzyme APOBEC-3A (P31941 whole entry): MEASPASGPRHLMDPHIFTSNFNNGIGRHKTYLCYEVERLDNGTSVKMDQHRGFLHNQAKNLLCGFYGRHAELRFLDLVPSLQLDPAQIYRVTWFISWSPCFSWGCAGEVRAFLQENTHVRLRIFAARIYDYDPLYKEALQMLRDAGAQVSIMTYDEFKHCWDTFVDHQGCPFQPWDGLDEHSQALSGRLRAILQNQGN

[4] = target: T2, Phosphomannomutase 2 (Homo sapiens, UniProt O15305); experiment: Counter screen SAR assay for PMM2 inhibitors via a fluorescence intensity assay. [Related pubchem assays (depositor defined):AID1545, AID1574]
T2 sequence (O15305 whole entry): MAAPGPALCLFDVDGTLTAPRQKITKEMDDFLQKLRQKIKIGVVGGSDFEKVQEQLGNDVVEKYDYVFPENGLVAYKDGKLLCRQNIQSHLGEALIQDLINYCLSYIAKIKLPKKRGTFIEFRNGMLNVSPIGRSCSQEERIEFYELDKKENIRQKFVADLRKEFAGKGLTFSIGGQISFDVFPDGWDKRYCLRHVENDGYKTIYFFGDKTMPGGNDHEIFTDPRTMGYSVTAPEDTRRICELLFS

[5] = target: DNA dC->dU-editing enzyme APOBEC-3G (Homo sapiens, UniProt Q9HC16); experiment: Dose Response confirmation of small molecule APOBEC3G DNA Deaminase Inhibitors via a fluorescence-based single-stranded DNA deaminase assay. [Related pubchem assays (depositor defined):AID493012, AID493028]; format: functional
Sequence of DNA dC->dU-editing enzyme APOBEC-3G (Q9HC16 whole entry): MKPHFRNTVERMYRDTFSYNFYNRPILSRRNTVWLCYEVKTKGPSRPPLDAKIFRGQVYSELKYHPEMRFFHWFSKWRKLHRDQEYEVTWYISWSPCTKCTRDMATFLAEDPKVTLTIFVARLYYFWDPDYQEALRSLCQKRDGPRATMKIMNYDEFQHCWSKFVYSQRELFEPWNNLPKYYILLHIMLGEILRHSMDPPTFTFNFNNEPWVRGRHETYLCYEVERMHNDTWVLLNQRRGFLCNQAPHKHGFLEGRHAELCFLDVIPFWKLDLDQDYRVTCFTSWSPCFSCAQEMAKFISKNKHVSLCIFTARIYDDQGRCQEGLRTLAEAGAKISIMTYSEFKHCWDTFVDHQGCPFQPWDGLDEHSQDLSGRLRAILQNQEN

[6] = target: FAD-linked sulfhydryl oxidase ALR (Homo sapiens, UniProt P55789); experiment: inhibitors of human ALR sulfhydryl oxidase, dose response, biochemical, H2O2 detection, luminescence, cherry-pick (AID 493248)
Sequence of FAD-linked sulfhydryl oxidase ALR (P55789 whole entry): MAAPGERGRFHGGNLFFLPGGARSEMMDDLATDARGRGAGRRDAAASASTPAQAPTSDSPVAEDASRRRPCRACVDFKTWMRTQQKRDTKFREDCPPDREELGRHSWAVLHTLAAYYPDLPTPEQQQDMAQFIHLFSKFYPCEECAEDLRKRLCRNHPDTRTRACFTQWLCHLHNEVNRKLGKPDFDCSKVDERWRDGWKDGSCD

[7] = target: T3, NADPH oxidase 1 (Homo sapiens, UniProt Q9Y5S8); format: functional, cell-based;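 note: Cell-based assay with luminescence read-out, IC50 derived from inhibitor dose-response curves; intracellular ROS from endogenous NOX1 in intact HT29 colon cancer cells; potency of inhibitors that lower the ROS luminescence signal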
T3 sequence (Q9Y5S8 whole entry): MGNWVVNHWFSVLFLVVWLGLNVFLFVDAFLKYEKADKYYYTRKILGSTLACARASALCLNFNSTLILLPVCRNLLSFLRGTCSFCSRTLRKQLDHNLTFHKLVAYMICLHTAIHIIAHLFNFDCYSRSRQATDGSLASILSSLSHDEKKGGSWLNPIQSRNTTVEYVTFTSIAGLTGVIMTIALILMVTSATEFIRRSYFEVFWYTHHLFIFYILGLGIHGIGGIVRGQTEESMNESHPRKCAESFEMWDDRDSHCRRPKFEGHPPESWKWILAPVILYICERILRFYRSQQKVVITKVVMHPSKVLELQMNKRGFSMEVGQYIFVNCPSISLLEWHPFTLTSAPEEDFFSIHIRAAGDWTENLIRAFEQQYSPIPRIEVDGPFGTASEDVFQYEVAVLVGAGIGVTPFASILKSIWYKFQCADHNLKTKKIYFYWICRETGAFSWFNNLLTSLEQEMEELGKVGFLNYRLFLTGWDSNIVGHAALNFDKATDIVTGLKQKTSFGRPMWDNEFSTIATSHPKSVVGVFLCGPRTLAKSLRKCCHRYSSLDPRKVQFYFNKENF

[8] = NIH-3T3 fibroblast cytotoxicity, dose response, cytotoxicity control, cell-based, fluorescence, Alamar Blue, secondary assay (AID 2327); format: functional;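 note: NIH-3T3 mouse fibroblasts cultured with fluconazole at 8 µg/mL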
[9] = target: T4, RNA-binding protein pos-1 (Caenorhabditis elegans, UniProt G5EF15); experiment: inhibitors of POS-1/mex-3 RNA binding, dose response, biochemical, fluorescence polarization (AID 1964);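 note: purified POS-1 fused to maltose binding protein made in E. coli; potency of compounds blocking POS-1 binding to fluorescent RNA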
T4 sequence (G5EF15 whole entry): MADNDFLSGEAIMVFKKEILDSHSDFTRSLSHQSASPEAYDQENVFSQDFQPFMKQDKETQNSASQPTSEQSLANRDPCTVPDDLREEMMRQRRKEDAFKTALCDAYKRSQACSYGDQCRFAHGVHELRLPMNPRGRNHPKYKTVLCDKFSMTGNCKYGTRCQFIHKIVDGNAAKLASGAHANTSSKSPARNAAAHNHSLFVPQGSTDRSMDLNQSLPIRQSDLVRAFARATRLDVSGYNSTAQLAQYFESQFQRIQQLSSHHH

[10] = target: T5, Zinc finger protein mex-5 (Caenorhabditis elegans, UniProt Q9XUB2); experiment: MEX-5/TCR-2 RNA interaction inhibitors, dose response, biochemical, C. elegans, fluorescence polarization (AID 1960)
T5 sequence (Q9XUB2 whole entry): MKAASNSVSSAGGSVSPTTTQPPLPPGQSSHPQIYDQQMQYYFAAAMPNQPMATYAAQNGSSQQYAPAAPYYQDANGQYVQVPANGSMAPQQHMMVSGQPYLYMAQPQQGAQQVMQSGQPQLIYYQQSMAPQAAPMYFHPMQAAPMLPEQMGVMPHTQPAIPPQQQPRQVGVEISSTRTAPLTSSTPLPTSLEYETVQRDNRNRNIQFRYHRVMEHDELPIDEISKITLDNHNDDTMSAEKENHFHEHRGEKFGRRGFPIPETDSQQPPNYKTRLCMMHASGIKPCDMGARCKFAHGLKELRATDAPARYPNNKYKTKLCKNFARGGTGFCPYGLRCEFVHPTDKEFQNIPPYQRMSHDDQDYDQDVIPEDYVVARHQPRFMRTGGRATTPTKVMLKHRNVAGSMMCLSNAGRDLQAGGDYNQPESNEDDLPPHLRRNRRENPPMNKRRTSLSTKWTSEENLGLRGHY

[11] = C. albicans growth with fluconazole, confirmation, fluorescence, retest (AID 2467); format: functional, cell-based
[12] = target: Bifunctional protein GlmU (Mycobacterium tuberculosis, UniProt P9WMN3); experiment: Inhibitors of Mycobacterial Glucosamine-1-phosphate acetyl transferase (GlmU). Secondary screen.; design: species or system Mycobacterium tuberculosis H37Rv
Sequence of Bifunctional protein GlmU (P9WMN3 whole entry): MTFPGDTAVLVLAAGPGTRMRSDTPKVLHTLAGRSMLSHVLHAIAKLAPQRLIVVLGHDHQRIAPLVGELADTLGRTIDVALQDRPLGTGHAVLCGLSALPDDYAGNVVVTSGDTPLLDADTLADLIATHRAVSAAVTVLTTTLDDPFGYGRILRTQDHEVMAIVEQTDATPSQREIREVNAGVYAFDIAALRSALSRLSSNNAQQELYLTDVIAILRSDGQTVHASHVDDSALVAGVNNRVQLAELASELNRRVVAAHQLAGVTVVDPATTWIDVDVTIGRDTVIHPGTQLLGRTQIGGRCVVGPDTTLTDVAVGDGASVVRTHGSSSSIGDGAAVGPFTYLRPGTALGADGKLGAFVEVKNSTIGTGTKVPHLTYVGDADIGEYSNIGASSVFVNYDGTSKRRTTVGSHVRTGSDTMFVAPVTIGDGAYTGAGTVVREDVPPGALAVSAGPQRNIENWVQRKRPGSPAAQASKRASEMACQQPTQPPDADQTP

[13] = enhancers of respiration in Yfh1-depleted yeast, dose response, Friedreich's ataxia, plus single-dose screen (AID 1465); format: functional;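 note: yeast depleted of Yfh1p frataxin homolog grown on glycerol needing respiration; WST-1 tetrazolium dye reduction as measure of cellular dehydrogenase metabolic activity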
[14] = target: Induced myeloid leukemia cell differentiation protein Mcl-1 (Homo sapiens, UniProt Q07820); format: functional
Sequence of Induced myeloid leukemia cell differentiation protein Mcl-1 (Q07820 whole entry): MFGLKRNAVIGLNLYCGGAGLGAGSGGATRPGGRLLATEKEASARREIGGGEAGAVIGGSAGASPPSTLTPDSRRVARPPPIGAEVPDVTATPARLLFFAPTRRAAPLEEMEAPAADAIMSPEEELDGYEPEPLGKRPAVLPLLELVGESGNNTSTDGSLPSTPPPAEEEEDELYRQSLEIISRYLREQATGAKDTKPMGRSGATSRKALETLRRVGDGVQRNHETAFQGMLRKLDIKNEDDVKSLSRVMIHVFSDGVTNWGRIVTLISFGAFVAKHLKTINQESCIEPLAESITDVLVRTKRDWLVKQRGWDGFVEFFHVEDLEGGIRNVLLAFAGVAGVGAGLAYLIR

[15] = target: Aryl hydrocarbon receptor (Homo sapiens, UniProt P35869); experiment: Luminescence-based cell-based high throughput dose response assay for activators of the Aryl Hydrocarbon Receptor (AHR). [Related pubchem assays: 2796 (Primary screen (AHR activators in singlicate)), 2845 (Confirmation screen (AHR activators in triplicate)), 434939 (Counterscreen (PXR activators in triplicate)), 2804 (Summary (AHR activators))]; format: ADME
Sequence of Aryl hydrocarbon receptor (P35869 whole entry, the tested form may be a part): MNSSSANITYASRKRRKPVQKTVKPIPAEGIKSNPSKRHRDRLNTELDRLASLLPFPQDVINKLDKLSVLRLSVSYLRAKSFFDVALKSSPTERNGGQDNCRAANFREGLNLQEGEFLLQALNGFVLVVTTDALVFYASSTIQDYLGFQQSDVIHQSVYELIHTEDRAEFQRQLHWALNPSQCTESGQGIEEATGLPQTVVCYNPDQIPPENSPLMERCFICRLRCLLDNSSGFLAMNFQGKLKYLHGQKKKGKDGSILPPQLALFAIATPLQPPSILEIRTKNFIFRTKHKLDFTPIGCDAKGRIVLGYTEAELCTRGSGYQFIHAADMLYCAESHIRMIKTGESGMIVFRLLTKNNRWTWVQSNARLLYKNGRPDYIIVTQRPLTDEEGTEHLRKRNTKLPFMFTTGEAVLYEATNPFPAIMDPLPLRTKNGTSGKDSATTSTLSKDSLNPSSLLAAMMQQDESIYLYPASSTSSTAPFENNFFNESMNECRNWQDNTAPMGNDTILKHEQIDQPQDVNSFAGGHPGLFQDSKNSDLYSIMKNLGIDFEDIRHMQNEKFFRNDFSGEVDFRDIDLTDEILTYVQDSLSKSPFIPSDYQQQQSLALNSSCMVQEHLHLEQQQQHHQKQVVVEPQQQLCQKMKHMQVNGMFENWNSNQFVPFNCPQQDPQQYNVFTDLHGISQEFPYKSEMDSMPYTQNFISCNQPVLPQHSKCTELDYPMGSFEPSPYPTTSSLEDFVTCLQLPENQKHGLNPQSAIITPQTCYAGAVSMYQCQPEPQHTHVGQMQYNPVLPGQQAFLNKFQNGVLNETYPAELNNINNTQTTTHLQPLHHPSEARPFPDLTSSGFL

[16] = target: T6, Carboxy-terminal domain RNA polymerase II polypeptide A small phosphatase 1 (Homo sapiens, UniProt Q9GZU7); experiment: inhibitors of CTDSP1, concentration-response testing, biochemical assay, absorbance-based, actives from ultra-high-throughput screening (AID 540297); format: functional
T6 sequence (Q9GZU7 whole entry): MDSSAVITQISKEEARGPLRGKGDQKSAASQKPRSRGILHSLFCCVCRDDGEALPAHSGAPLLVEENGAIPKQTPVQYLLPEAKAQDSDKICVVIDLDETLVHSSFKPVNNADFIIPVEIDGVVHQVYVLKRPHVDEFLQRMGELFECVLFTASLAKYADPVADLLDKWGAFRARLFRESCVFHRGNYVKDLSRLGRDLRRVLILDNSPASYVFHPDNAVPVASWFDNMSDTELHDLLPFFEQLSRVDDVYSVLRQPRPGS

[17] = target: Mitochondrial peptide methionine sulfoxide reductase (Bos taurus, UniProt P54149); format: functional;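 note: absorbance read-out, biochemical high-throughput dose-response screen for MsrA inhibitors, confirmatory; recombinant bovine MsrA coupled to E. coli TrxB with NADPH and selenocystamine; potency is for inhibitors of MsrA activity on DMSO substrate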
Sequence of Mitochondrial peptide methionine sulfoxide reductase (P54149 whole entry): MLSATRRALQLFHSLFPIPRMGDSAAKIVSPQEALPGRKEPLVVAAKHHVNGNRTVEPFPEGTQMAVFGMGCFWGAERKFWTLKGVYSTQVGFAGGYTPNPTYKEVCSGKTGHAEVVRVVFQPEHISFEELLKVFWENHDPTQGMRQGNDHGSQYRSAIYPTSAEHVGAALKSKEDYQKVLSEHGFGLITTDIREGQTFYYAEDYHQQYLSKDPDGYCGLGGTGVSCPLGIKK

[18] = inhibitors of intracellular T. cruzi replication, confirmation, NIH3T3 host cells, beta-gal luminescence (AID 2044); format: functional, cell-based;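 note: intracellular parasites grown in NIH/3T3 mouse fibroblasts as host cells; luminescent beta-galactosidase reporter signal from transgenic T. cruzi replicating inside host cells; inhibitors lower the luminescence signal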
[19] = cytotoxicity toward NIH3T3 fibroblasts, dose response, counter-screen, cell-based, ATP luminescence, mouse fibroblasts (AID 2010); format: functional;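 note: cells exposed to compound for about 90 hours before reading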
[20] = cells
[21] = Luminescence-based dose response cell-based high throughput screening assay for cytotoxic compounds using the IEC-6 intestinal epithelial cell line. [Related pubchem assays: 1858 (Summary AID.), 1825 (Counterscreen.), 1907 (Confirmation screen.)]; format: functional
[22] = target: T1, Mannose-6-phosphate isomerase; experiment: human PMI inhibitors, high substrate, primary screen, biochemical, fluorescence intensity, high mannose 6-phosphate (AID 1220)
[23] = tested on: P388/ADR; experiment: cells; format: functional; settings: Mus musculus, P388/ADR
[24] = tested on: SN12K1; experiment: cells; format: functional; settings: Homo sapiens
[25] = tested on: P388; experiment: cells; format: functional; settings: Mus musculus, P388
[26] = THP-1 cell cytotoxicity, dose response, cytotoxicity control for Vif-APOBEC3G degradation inhibitor project, THP-1 cells (AID 1117359); format: functional; settings: Human immunodeficiency virus 1, THP-1

COc1ccc(-c2n[nH]c(=S)[nH]2)cc1OC
IC50 [1]: 8.55 µM (active) | IC50 [2]: 29 µM (active) | IC50 [3]: > 100 µM (inactive) | IC50 [4]: > 100 µM (inactive) | IC50 [5]: 3.45 µM (active) | AC50 [6]: 0.011 µM (active)

O=[N+]([O-])c1cccc(-c2nc(-c3ccccc3)c(-c3ccccc3)[nH]2)c1
IC50 [7]: > 17 µM (not active)

CN(C)S(=O)(=O)c1cccc(NC(=S)N/N=C/c2ccc(O)c(O)c2O)c1
EC50 [8]: > 150 µM (inactive) | EC50 [9]: 15 µM (active) | EC50 [10]: 3.48 µM (active) | EC50 [11]: > 38 µM (not active) | IC50 [12]: 68.4 µM (active) | EC50 [13]: > 100 µM (active) | IC50 [14]: 1.17 µM (active)

O=C(N/N=C/c1ccco1)c1ccc(C(=O)N/N=C/c2ccco2)o1
EC50 [15]: 5.21 µM (active) | IC50 [16]: 4.92 µM (active) | IC50 [17]: 114 µM (inactive)

CCCCc1c(CCC)c(=N)c2ccccc2n1C
EC50 [18]: < 0.1 µM (active) | EC50 [19]: > 60 µM (inconclusive) | EC50 [20]: 0.017 µM (active)

COC1=C(N)C(=O)c2nc(-c3nc(C(=O)O)c(C)c(-c4ccc(OC)c(OC)c4O)c3N)ccc2C1=O [STREPTONIGRIN]
IC50 [21]: 0.0094 µM (active) | IC50 [22]: > 50 µM (not active) | GI50 [23]: 0.0287 µM (active) | GI50 [24]: < 0.01 µM (active) | GI50 [25]: 0.0352 µM (active) | CC50 [26]: 2.96 µM (active)
